What is called IC50 is the concentration that gives 50% inhibition. As usually defined, the Ki is a dissociation constant, usually derived from enzyme kinetics or from competition with a known ligand. Higher therefore signals lower affinity.

The target in assay [1] is T1, hmGluR5 (Homo sapiens (Human), UniProt P41594). Kind of assay: Calcium mobilization assay (FLIPR), negative allosteric activity, EC80 glutamate. Type of assay: cell-based. The following applies: HEK 293 cells expressing hmGluR5; for Emax: HEK293, FLIPR maximum inhibition of EC80 glutamate response, read-out: hmGlu5 FLIPR % inhibition; for IC50: inhibition of EC80 glutamate response. The protocol:
The cDNA for rat metabotropic glutamate receptor 5 (rmGluR5) and the cDNA for human metabotropic glutamate receptor 5 […] gifts from S. Nakanishi (Kyoto University, Kyoto, Japan). […] Twenty-four hours prior to assay, cells were seeded into 384-well black wall microtiter plates coated with poly-D-lysine. […] After excess dye was discarded, cells were washed in assay buffer and layered with a final volume equal to 30 μL/well. […] Laser excitation energy was adjusted so that basal fluorescence readings were approximately 10,000 relative fluorescent units. […] Basal readings derived from negative controls were subtracted from all samples. Maximum change in fluorescence was calculated for each well. Concentration-response curves derived from the maximum change in fluorescence were analyzed by nonlinear regression (Hill equation). A negative modulator can be identified from these concentration-response curves if a compound produces a concentration dependent inhibition of the EC80 glutamate response.
On the technique in general: Calcium assays in cells follow changes in intracellular calcium, usually with a dye or a luminescent sensor.

Assay [2] has as its target T1, hmGluR5. Kind of assay: Radioligand binding assay (MPEP binding site). The note with it: radioligand binding to the MPEP site, 5 nM radioligand; Ki by Cheng-Prusoff. Here is the method: Binding assays were performed as described in [J. A. O'Brien et al. Mol. Pharmacol., 2003, 64, 731-740] with slight modifications, including that a radioligand that binds to the […] (MPEP) binding site was used in place of [^3H]-MPEP. Briefly, after thawing, the membrane homogenates were resuspended in 50 mM Tris-HCl and 0.9% NaCl binding buffer at pH 7.4 to a final assay concentration of 20 μg is protein/well for radioligand filtration binding. Incubations included 5 nM radioligand, membranes and either buffer or varying concentrations of compound. Samples were incubated for 60 min at room temperature with shaking. Non-specific binding was defined with 10 μM cold MPEP when using the radioligand. After incubation, samples were filtered over a GF/C filter (presoaked in 0.25% polyethyleneimine (PEI)) and then washed 4 times using a Tomtec® Harvester 96® Mach III cell harvester (Tomtec, Hamden, Conn.) with 0.5 mL ice-cold 50 mM Tris-HCl (pH 7.4). IC50 values were derived from the inhibition curve and Ki values were calculated according to the Cheng and Prusoff equation of Ki=IC50/(1+[L]/Kd) described in [Y. Cheng and W. H. Prusoff Biochem. Pharmacol. 1973, 22, 3099-3108] where [L] is the concentration of radioligand and Kd is its dissociation constant at the receptor, derived from the saturation isotherm. The Ki values of compounds of the invention were <10 μM.

T1 sequence (P41594 21-1212): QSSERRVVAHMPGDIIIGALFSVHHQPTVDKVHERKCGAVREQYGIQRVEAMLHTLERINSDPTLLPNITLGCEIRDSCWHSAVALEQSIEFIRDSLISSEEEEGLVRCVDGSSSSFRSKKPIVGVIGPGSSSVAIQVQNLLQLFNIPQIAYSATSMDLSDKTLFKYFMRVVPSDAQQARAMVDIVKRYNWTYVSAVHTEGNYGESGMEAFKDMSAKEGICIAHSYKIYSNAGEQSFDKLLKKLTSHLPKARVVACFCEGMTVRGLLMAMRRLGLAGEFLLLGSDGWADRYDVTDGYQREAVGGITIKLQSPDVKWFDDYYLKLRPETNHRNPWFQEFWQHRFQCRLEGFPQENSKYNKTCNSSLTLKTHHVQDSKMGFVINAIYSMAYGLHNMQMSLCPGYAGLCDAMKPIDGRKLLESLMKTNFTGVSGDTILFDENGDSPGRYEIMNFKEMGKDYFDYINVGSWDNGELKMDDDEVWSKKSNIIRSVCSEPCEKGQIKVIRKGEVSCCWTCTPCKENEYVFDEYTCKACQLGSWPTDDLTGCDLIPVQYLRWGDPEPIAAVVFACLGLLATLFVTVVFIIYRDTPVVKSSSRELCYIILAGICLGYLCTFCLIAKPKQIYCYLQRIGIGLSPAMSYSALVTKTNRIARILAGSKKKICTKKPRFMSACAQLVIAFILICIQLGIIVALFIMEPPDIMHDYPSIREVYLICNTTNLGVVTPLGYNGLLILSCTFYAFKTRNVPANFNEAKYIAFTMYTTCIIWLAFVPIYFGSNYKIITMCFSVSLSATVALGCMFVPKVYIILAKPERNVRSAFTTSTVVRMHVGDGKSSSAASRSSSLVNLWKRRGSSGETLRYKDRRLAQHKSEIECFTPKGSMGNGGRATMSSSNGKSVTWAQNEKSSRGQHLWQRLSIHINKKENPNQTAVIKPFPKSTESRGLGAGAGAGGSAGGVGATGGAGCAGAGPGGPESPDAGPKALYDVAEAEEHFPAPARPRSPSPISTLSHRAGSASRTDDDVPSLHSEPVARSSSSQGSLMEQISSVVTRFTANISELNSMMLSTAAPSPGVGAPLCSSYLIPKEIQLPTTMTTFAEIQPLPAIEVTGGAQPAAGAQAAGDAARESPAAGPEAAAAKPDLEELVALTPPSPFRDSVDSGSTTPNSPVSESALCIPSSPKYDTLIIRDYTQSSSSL

Consider `Cc1cccc(C(=O)NC23CCCC(NC(=O)c4cccc(Cl)c4)(CC2)C3)n1` (stereo not drawn) [Example 2, N-(5-(3-chlorobenzamido)bicyclo[3.2.1]octan-1-yl)-6-methylpicolinamide], for which, in assay [1], the Emax came out at 89% and the IC50 is 3.7 nM. For the same molecule, in assay [2], the affinity corresponds to a Ki of 27 nM.

In the case of `Cc1cncc(C(=O)NC23CCCC(NC(=O)c4cccc(F)c4)(CC2)C3)n1` (stereo not drawn) [Example 6, 6-Methyl-pyrazine-2-carboxylic acid [5-(3-fluoro-benzoylamino)-bicyclo[3.2.1]oct-1-yl]-amide], in assay [1], the Emax was determined as 92% and the IC50 was 9 nM. In assay [2], this molecule gave a Ki of 78 nM.

Consider `Cc1ncc(C(=O)NC23CCCC(NC(=O)c4cccc(Cl)c4)(CC2)C3)s1` (stereo not drawn) [Example 15, N-(5-(3-chlorobenzamido)bicyclo[3.2.1]octan-1-yl)-2-methylthiazole-5-carboxamide], for which, in assay [1], the Emax was 88% and the IC50 was determined as 26 nM. Moreover, the Ki in assay [2] came to 340 nM.

Regarding `Cc1cccc(C(=O)NC23CCCC(NC(=O)c4ccncc4)(CC2)C3)c1` (stereo not drawn) [Example 36, N-(5-(3-methylbenzamido)bicyclo[3.2.1]octan-1-yl)isonicotinamide], in assay [1], the Emax came to 87% and the IC50 was 35 nM. In assay [2], this molecule returned an inhibition constant Ki of 280 nM.

Turning to `Cc1cccc(C(=O)N[C@@]23CCC[C@@](NC(=O)c4ccccn4)(CC2)C3)n1` [Example 126, 6-Methyl-pyridine-2-carboxylic acid {(1S,5R)-5-[(pyridine-2-carbonyl)-amino]-bicyclo[3.2.1]oct-1-yl}-amide], in assay [1], the Emax was found to be 86% and the IC50 amounted to 0.32 nM. The molecule also displayed a Ki in assay [2] of 39 nM.

As to `Cc1cncc(C(=O)N[C@]23CCC[C@](NC(=O)c4cccc(F)c4)(CC2)C3)n1` [Example 160, 6-Methyl-pyrazine-2-carboxylic acid [(1R,5S)-5-(3-fluoro-benzoylamino)-bicyclo[3.2.1]oct-1-yl]-amide], in assay [1], the Emax was 89% and the half-maximal inhibitory concentration (IC50) was 3.9 nM. Further, affinity in assay [2] was put at a Ki of 35 nM.

In the case of `Cc1cncc(C(=O)N[C@@]23CCC[C@@](NC(=O)c4cccc(F)c4)(CC2)C3)n1` [Example 161, 6-Methyl-pyrazine-2-carboxylic acid [(1S,5R)-5-(3-fluoro-benzoylamino)-bicyclo[3.2.1]oct-1-yl]-amide], in assay [1], the Emax is 90% and the 50% inhibitory concentration (IC50) came to 134 nM. The molecule further displayed a Ki in assay [2] of 1200 nM.

As for `Cc1cccc(NC(=O)C23CCCC(NC(=O)c4nc(C)cs4)(CC2)C3)n1` (stereo not drawn) [Example 171, 4-methyl-N-(5-(6-methylpyridin-2-ylcarbamoyl)bicyclo[3.2.1]octan-1-yl)thiazole-2-carboxamide], in assay [1], the Emax came to 94% and the 50% inhibitory concentration (IC50) came to 4.7 nM. Also, in assay [2], the Ki is 65 nM.

In the case of `Cc1cccc(NC(=O)C23CCCC(NC(=O)c4cccc(Cl)c4)(CC2)C3)n1` (stereo not drawn) [Example 176, 5-(3-chlorobenzamido)-N-(6-methylpyridin-2-yl)bicyclo[3.2.1]octane-1-carboxamide], in assay [1], the Emax is 91% and the half-inhibitory concentration (IC50) came out at 33 nM. This molecule also yielded a Ki in assay [2] of 500 nM.

As for `Cc1cccc(C(=O)NC23CCCC(C(=O)Nc4ccnc(C)n4)(CC2)C3)n1` (stereo not drawn) [Example 178, 6-methyl-N-(5-(2-methylpyrimidin-4-ylcarbamoyl)bicyclo[3.2.1]octan-1-yl)picolinamide], in assay [1], the Emax was determined as 90% and the half-maximal inhibitory concentration (IC50) amounted to 38 nM. The same molecule gave an inhibition constant (Ki) in assay [2] of 370 nM.

These data come from patent US8921370B2, “Bicyclo[3.2.1]octyl amide derivatives and uses of same” (H. Lundbeck A/S, priority 2010, dated 2014).
